Experimental data: publication PMC8222254, “Self-assembly of an anion receptor with metal-dependent kinase inhibition and potent in vitro anti-cancer properties” (Nature Communications, 2021)
Several values for one entry are separate records, joined by “and”; a condition that tells them apart may be missing. Identical values can stand only once.

What was measured:
Assay in all cases: Kinase inhibition screen, cell-free 33P ATP assay at 10 μM
Type in all cases: biochemical
[1] = molecular target: 140 purified human kinases (Homo sapiens, UniProt P31751); conditions: PKBb
Procedure, shortened: (§1)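 Each complex tested in duplicate at 10 μM; cell-free radiometric assay using ^33P ATP on purified enzymes. Hits mapped by HGNC symbol onto the kinome tree.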

[2] = molecular target: 140 purified human kinases (Homo sapiens, UniProt Q9H422)
Procedure, shortened: as §1

[3] = molecular target: 140 purified human kinases (Homo sapiens, UniProt Q8N4C8)
Procedure, shortened: as §1

[4] = molecular target: T1, 140 purified human kinases (Homo sapiens, UniProt P43403); conditions: for % Activity inhibition Mean / % Activity inhibition Run 1 / % Activity inhibition Run 2 / % Activity remaining Run 1 / % Activity remaining Run 2: 10 µM
T1 sequence (P43403 1-619): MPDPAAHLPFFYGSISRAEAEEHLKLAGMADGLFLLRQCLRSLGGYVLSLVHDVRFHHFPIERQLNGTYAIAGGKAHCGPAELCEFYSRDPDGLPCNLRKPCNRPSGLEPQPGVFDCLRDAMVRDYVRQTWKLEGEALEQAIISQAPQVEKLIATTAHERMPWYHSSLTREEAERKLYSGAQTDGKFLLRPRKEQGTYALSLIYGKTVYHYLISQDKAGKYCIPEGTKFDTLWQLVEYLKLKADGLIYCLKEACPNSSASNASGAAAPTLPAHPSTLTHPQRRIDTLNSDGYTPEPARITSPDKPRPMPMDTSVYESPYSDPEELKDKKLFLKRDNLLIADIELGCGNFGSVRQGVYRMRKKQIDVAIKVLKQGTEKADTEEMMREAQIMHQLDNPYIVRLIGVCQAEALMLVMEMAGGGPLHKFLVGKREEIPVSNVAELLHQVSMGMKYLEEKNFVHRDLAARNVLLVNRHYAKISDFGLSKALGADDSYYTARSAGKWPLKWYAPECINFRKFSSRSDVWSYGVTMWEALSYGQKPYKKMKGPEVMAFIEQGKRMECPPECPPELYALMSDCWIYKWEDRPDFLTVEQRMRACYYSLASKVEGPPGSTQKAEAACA
Procedure, shortened: as §1

[5] = molecular target: 140 purified human kinases (Homo sapiens, UniProt Q5TCY1)
Procedure, shortened: as §1

[6] = molecular target: 140 purified human kinases (Homo sapiens, UniProt Q9H4A3)
Procedure, shortened: as §1

[7] = molecular target: 140 purified human kinases (Homo sapiens, UniProt P53355)
Procedure, shortened: as §1

[8] = molecular target: 140 purified human kinases (Homo sapiens, UniProt Q14012); conditions: for % Activity inhibition Mean / % Activity inhibition Run 1 / % Activity inhibition Run 2 / % Activity remaining Run 1 / % Activity remaining Run 2: 10 µM
Procedure, shortened: as §1

[9] = molecular target: 140 purified human kinases (Homo sapiens, UniProt P48730); conditions: CK1δ; for % Activity Run 1 / % Activity Run 2: 10 µM
Procedure, shortened: as §1

[10] = molecular target: 140 purified human kinases (Homo sapiens, UniProt P27448)
Procedure, shortened: as §1

[11] = molecular target: 140 purified human kinases (Homo sapiens, UniProt Q9P1W9)
Procedure, shortened: as §1

140 purified human kinases (Homo sapiens, UniProt Q8N4C8), sequence (Q8N4C8 whole entry): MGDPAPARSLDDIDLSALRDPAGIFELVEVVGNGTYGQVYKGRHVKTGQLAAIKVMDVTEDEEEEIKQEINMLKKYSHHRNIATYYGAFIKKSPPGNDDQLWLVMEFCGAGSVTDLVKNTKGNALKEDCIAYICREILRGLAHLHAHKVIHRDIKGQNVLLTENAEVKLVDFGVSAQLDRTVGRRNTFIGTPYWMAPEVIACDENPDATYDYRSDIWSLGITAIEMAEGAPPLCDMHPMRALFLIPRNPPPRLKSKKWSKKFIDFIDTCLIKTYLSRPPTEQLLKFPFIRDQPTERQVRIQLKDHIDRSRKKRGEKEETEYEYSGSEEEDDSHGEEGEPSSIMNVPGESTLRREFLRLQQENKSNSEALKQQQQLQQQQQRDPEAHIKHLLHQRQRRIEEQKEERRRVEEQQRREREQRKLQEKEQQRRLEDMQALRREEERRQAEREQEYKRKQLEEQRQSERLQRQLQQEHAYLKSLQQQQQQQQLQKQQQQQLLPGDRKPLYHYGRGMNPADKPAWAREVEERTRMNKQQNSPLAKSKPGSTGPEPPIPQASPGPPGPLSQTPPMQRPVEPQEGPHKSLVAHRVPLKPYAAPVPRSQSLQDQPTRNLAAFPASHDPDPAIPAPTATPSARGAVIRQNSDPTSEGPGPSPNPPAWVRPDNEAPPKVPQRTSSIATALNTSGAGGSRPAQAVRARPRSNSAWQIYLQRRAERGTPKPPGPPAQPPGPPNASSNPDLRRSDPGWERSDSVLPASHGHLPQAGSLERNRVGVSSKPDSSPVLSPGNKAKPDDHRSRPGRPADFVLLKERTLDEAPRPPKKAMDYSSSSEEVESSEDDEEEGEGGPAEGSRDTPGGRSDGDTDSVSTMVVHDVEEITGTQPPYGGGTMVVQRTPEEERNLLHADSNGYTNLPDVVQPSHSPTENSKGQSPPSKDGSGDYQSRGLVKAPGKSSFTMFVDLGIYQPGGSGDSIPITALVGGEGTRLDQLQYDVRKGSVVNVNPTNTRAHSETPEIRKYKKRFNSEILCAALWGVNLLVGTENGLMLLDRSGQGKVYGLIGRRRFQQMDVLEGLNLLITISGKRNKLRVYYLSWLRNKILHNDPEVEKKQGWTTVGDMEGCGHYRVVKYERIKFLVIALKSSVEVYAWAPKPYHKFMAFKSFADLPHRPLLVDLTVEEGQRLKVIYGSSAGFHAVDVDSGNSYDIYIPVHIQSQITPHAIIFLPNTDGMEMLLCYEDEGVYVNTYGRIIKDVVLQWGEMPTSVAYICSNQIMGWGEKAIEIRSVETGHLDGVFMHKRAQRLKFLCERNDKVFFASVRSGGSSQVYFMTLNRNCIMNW
140 purified human kinases (Homo sapiens, UniProt P27448), sequence (P27448 whole entry): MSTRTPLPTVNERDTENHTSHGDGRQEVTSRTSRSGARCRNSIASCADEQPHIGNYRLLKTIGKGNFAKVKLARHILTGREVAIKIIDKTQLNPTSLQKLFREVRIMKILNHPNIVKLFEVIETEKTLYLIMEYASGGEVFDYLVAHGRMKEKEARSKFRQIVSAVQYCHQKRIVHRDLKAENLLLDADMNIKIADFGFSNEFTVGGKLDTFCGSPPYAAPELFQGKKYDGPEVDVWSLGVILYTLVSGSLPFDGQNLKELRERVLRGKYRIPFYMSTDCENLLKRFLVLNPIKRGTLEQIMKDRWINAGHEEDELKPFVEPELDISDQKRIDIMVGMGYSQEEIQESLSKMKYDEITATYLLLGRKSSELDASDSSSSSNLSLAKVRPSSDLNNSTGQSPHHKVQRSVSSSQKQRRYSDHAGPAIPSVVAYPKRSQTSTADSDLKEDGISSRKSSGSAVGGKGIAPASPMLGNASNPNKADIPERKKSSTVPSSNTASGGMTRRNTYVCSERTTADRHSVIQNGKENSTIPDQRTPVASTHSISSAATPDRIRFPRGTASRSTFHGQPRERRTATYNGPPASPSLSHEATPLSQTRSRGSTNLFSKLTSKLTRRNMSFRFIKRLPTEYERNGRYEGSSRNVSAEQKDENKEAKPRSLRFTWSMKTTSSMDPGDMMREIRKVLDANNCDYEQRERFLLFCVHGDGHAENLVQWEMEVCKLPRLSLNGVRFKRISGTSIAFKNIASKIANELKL
140 purified human kinases (Homo sapiens, UniProt Q9H422), sequence (Q9H422 whole entry): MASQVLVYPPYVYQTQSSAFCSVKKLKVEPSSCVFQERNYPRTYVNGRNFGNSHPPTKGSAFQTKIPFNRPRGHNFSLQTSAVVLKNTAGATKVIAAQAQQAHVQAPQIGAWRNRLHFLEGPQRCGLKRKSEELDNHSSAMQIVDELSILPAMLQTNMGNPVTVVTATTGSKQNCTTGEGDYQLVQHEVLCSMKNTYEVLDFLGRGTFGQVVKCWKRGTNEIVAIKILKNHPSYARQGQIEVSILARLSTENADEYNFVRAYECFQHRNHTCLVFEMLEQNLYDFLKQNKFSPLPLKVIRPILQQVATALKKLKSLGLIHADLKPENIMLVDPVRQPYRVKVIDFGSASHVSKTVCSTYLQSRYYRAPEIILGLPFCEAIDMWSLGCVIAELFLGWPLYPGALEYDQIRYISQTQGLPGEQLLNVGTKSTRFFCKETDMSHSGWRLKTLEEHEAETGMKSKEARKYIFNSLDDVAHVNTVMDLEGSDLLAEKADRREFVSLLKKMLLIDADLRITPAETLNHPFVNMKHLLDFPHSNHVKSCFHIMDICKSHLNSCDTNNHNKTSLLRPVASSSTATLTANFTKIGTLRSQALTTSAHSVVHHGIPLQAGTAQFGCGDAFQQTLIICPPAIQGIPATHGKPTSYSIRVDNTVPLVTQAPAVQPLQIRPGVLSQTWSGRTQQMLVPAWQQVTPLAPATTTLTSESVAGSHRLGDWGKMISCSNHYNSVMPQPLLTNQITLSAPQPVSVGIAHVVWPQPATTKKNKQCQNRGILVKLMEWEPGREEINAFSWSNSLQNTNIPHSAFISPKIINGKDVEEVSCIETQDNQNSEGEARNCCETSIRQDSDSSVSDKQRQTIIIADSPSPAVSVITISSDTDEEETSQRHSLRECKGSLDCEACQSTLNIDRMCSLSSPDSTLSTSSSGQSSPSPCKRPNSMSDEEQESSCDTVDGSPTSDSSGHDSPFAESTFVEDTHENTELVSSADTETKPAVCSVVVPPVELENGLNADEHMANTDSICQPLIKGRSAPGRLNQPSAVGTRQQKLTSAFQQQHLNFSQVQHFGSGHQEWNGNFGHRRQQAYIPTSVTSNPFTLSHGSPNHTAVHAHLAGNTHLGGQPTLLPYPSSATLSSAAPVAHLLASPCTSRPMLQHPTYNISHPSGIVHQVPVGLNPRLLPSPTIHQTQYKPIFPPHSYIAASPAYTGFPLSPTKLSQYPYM
140 purified human kinases (Homo sapiens, UniProt P31751), sequence (P31751 whole entry): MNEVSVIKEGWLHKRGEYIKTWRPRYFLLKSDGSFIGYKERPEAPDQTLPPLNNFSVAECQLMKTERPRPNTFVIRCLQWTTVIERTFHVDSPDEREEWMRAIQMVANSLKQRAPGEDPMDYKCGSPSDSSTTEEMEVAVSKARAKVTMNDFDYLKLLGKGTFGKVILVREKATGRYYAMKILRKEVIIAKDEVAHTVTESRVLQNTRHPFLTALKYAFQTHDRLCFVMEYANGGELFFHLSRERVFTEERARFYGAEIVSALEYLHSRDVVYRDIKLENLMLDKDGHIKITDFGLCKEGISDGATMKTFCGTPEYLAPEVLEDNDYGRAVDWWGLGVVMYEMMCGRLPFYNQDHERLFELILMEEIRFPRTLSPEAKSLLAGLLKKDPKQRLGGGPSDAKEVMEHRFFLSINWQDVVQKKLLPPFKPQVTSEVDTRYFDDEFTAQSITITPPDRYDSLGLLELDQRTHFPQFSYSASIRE
140 purified human kinases (Homo sapiens, UniProt Q14012), sequence (Q14012 whole entry): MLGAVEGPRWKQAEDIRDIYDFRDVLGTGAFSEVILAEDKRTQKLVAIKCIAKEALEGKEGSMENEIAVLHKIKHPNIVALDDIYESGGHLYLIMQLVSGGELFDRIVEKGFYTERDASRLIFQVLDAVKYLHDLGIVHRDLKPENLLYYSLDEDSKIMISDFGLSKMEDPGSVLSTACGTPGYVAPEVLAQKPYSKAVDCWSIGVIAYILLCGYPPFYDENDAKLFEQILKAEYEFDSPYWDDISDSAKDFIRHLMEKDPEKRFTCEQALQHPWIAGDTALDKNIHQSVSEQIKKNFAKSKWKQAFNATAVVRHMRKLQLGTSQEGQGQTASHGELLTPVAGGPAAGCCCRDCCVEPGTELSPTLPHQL
140 purified human kinases (Homo sapiens, UniProt P48730), sequence (P48730 whole entry): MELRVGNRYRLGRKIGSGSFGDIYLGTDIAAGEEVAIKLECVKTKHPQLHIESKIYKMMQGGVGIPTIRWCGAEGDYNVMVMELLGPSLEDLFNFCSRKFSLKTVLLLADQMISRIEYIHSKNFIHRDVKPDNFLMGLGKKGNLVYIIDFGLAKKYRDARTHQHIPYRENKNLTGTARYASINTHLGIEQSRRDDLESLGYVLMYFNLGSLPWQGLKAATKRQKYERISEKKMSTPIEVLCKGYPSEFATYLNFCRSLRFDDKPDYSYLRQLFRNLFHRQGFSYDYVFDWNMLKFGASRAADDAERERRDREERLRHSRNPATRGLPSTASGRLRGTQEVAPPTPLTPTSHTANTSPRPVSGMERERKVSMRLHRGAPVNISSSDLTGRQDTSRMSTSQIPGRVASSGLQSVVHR
140 purified human kinases (Homo sapiens, UniProt Q9P1W9), sequence (Q9P1W9 whole entry): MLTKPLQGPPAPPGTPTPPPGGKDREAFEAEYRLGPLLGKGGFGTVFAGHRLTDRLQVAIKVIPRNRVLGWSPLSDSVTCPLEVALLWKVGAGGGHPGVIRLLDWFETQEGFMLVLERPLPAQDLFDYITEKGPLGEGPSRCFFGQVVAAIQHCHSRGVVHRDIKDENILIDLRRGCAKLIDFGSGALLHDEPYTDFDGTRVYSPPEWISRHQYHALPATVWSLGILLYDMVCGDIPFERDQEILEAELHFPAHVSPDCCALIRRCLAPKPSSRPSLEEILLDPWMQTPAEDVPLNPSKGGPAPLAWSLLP

With `[Cu+2].[Cu+2].[Cu+2].c1ccc(-c2csc(NCCN(CCNc3nc(-c4ccccn4)cs3)CCNc3nc(-c4ccccn4)cs3)n2)nc1.c1ccc(-c2csc(NCCN(CCNc3nc(-c4ccccn4)cs3)CCNc3nc(-c4ccccn4)cs3)n2)nc1` [[L2Cu3]6+] the “% Inhibition Run 1” value [1] was 91.7%, the “% Inhibition Run 2” value [1] was 93.5% and the “% Inhibition, Mean” value [1] was 93%. For the same molecule, the mean % activity [1] was 7.4%, the “% activity” value ([1]; Run 1) was 8.3% and the “% activity” value ([1]; Run 2) was 6.5%. For the same molecule, the “% Activity inhibition Mean” value ([1]; 10 µM) was 92.6%, the “% Activity inhibition Run 1” value ([1]; 10 µM) was 91.7% and the “% Activity inhibition Run 2” value ([1]; 10 µM) was 93.5%. For the same molecule, the “% Activity remaining Run 1” value ([1]; 10 µM) was 8.30%, the “% Activity remaining Run 2” value ([1]; 10 µM) was 6.50% and the “% Inhibition Run 1” value ([2]; HIPK3) was 56.3%. For the same molecule, the “% Inhibition Run 2” value ([2]; HIPK3) was 58.6%, the “% Inhibition, Mean” value ([2]; HIPK3) was 57% and the mean % activity ([2]; HIPK3) was 43%. The “% activity” value ([2]; HIPK3, Run 1) was 43.7%, the “% activity” value ([2]; HIPK3, Run 2) was 41.4% and the “% Inhibition Run 1” value ([3]; MINK1) was 70%. The “% Inhibition Run 2” value ([3]; MINK1) was 78.2%, the “% Inhibition, Mean” value ([3]; MINK1) was 74% and the mean % activity ([3]; MINK1) was 26%. For the same molecule, the “% activity” value ([3]; MINK1, Run 1) was 30%, the “% activity” value ([3]; MINK1, Run 2) was 21.8% and the “% Inhibition Run 1” value ([4]; ZAP70) was 94%. The “% Inhibition Run 2” value ([4]; ZAP70) was 89.2%, the “% Inhibition, Mean” value ([4]; ZAP70) was 92% and the mean % activity ([4]; ZAP70) was 8%. The “% activity” value ([4]; ZAP70, Run 1) was 6%, the “% activity” value ([4]; ZAP70, Run 2) was 10.8% and the “% Activity inhibition Mean” value ([4]; ZAP70) was 91.6%. For the same molecule, the “% Activity inhibition Run 1” value ([4]; ZAP70) was 94%, the “% Activity inhibition Run 2” value ([4]; ZAP70) was 89.2% and the “% Activity remaining Run 1” value ([4]; ZAP70) was 6.00%. For the same molecule, the “% Activity remaining Run 2” value ([4]; ZAP70) was 10.80%, the “% Activation, Mean value” ([5]; TTBK1) was 9% and the “% Inhibition Run 1” value ([5]; TTBK1) was 10%. For the same molecule, the “% Inhibition Run 2” value ([5]; TTBK1) was -27.8%, the “% Inhibition, Mean” value ([5]; TTBK1) was -9% and the mean % activity ([5]; TTBK1) was 109%. The “% activity” value ([5]; TTBK1, Run 1) was 90%, the “% activity” value ([5]; TTBK1, Run 2) was 127.8% and the “% Inhibition Run 1” value ([6]; WNK1) was 12.1%. For the same molecule, the “% Inhibition Run 2” value ([6]; WNK1) was -2.6%, the “% Inhibition, Mean” value ([6]; WNK1) was 4.75% and the mean % activity ([6]; WNK1) was 95%. For the same molecule, the “% activity” value ([6]; WNK1, Run 1) was 87.9%, the “% activity” value ([6]; WNK1, Run 2) was 102.6% and the “% Activation, Mean value” ([7]; DAPK1) was 1.5%. The “% Inhibition Run 1” value ([7]; DAPK1) was 6.2%, the “% Inhibition Run 2” value ([7]; DAPK1) was -9.2% and the “% Inhibition, Mean” value ([7]; DAPK1) was -1.5%. For the same molecule, the mean % activity ([7]; DAPK1) was 102%, the “% activity” value ([7]; DAPK1, Run 1) was 93.8% and the “% activity” value ([7]; DAPK1, Run 2) was 109.2%. The “% Inhibition Run 1” value ([8]; CAMK1) was 94.9%, the “% Inhibition Run 2” value ([8]; CAMK1) was 96.1% and the “% Inhibition, Mean” value ([8]; CAMK1) was 96%. The mean % activity ([8]; CAMK1) was 4.5%, the “% activity” value ([8]; CAMK1, Run 1) was 5.1% and the “% activity” value ([8]; CAMK1, Run 2) was 3.9%. For the same molecule, the “% Activity inhibition Mean” value ([8]; CAMK1) was 95.5%, the “% Activity inhibition Run 1” value ([8]; CAMK1) was 94.9% and the “% Activity inhibition Run 2” value ([8]; CAMK1) was 96.1%. For the same molecule, the “% Activity remaining Run 1” value ([8]; CAMK1) was 5.10%, the “% Activity remaining Run 2” value ([8]; CAMK1) was 3.90% and the “% Activation, Mean value” [9] was 12%. The “% Inhibition Run 1” value [9] was -26.4%, the “% Inhibition Run 2” value [9] was 2.3% and the “% Inhibition, Mean” value [9] was -12%. The mean % activity [9] was 112%, the “% activity” value ([9]; Run 1) was 126.4% and the “% activity” value ([9]; Run 2) was 97.7%. For the same molecule, the “% Activity Run 1” value [9] was 126.40%, the “% Activity Run 2” value [9] was 97.70% and the “% Inhibition Run 1” value ([10]; MARK3) was 28.5%. The “% Inhibition Run 2” value ([10]; MARK3) was 28.2%, the “% Inhibition, Mean” value ([10]; MARK3) was 28% and the mean % activity ([10]; MARK3) was 72%. The “% activity” value ([10]; MARK3, Run 1) was 71.5%, the “% activity” value ([10]; MARK3, Run 2) was 71.8% and the “% Inhibition Run 1” value ([11]; PIM2) was -3.6%. The “% Inhibition Run 2” value ([11]; PIM2) was 7%, the “% Inhibition, Mean” value ([11]; PIM2) was 1.7% and the mean % activity ([11]; PIM2) was 98%. The “% activity” value ([11]; PIM2, Run 1) was 103.6% and the “% activity” value ([11]; PIM2, Run 2) was 93%.
`CC(=O)[O-].CC(=O)[O-].CC(=O)[O-].CC(=O)[O-].CC(=O)[O-].CC(=O)[O-].[Zn+2].[Zn+2].[Zn+2].c1ccc(-c2csc(NCCN(CCNc3nc(-c4ccccn4)cs3)CCNc3nc(-c4ccccn4)cs3)n2)nc1.c1ccc(-c2csc(NCCN(CCNc3nc(-c4ccccn4)cs3)CCNc3nc(-c4ccccn4)cs3)n2)nc1` [[L2Zn3]6+] was tested, and the “% Inhibition, Mean” value [1] was 65%, the “% Inhibition, Run 1 / Run 2” value [1] was 76% and 55% and the mean % activity [1] was 35%. The “% activity” value ([1]; duplicate runs) was 24% and 45%, the “% Inhibition, Mean” value ([2]; HIPK3) was 15% and the mean % activity ([2]; HIPK3) was 85%. For the same molecule, the “% activity” value ([2]; HIPK3, duplicate runs) was 97% and 72%, the “% Inhibition, Mean” value ([3]; MINK1) was 67% and the “% Inhibition, Run 1 / Run 2” value ([3]; MINK1) was 72% and 62%. For the same molecule, the mean % activity ([3]; MINK1) was 33%, the “% activity” value ([3]; MINK1, duplicate runs) was 28% and 38% and the “% Inhibition, Mean” value ([4]; ZAP70) was 89%. The “% Inhibition, Run 1 / Run 2” value ([4]; ZAP70) was 91% and 88%, the mean % activity ([4]; ZAP70) was 11% and the “% Activity inhibition Mean” value ([4]; ZAP70) was 89.0%. For the same molecule, the “% Activity inhibition Run 1” value ([4]; ZAP70) was 90%, the “% Activity inhibition Run 2” value ([4]; ZAP70) was 88% and the “% Activity remaining Run 1” value ([4]; ZAP70) was 10%. The “% Activity remaining Run 2” value ([4]; ZAP70) was 12%, the “% activity” value ([4]; ZAP70, duplicate runs) was 9.5% and 12% and the “% Activation, Mean value” ([5]; TTBK1) was 8%. The “% Inhibition, Mean” value ([5]; TTBK1) was -8%, the mean % activity ([5]; TTBK1) was 108% and the “% activity” value ([5]; TTBK1, duplicate runs) was 97% and 119%. For the same molecule, the “% Inhibition, Mean” value ([6]; WNK1) was 2.3%, the mean % activity ([6]; WNK1) was 98% and the “% activity” value ([6]; WNK1, duplicate runs) was 90% and 106%. For the same molecule, the “% Activation, Mean value” ([7]; DAPK1) was 16%, the “% Inhibition, Mean” value ([7]; DAPK1) was -16% and the “% Inhibition, Run 1 / Run 2” value ([7]; DAPK1) was -12% and -21%. For the same molecule, the mean % activity ([7]; DAPK1) was 116%, the “% Activity Run 1” value ([7]; DAPK1, 10 µM) was 112.0% and the “% Activity Run 2” value ([7]; DAPK1, 10 µM) was 121.0%. The “% activity” value ([7]; DAPK1, duplicate runs) was 112% and 121%, the “% Inhibition, Mean” value ([8]; CAMK1) was 96% and the “% Inhibition, Run 1 / Run 2” value ([8]; CAMK1) was 94% and 98%. For the same molecule, the mean % activity ([8]; CAMK1) was 3.6%, the “% Activity inhibition Mean” value ([8]; CAMK1) was 96.0% and the “% Activity inhibition Run 1” value ([8]; CAMK1) was 94%. For the same molecule, the “% Activity inhibition Run 2” value ([8]; CAMK1) was 98%, the “% Activity remaining Run 1” value ([8]; CAMK1) was 6% and the “% Activity remaining Run 2” value ([8]; CAMK1) was 2%. For the same molecule, the “% activity” value ([8]; CAMK1, duplicate runs) was 5.6% and 1.6%, the “% Activation, Mean value” [9] was 19% and the “% Inhibition, Mean” value [9] was -19%. For the same molecule, the mean % activity [9] was 119%, the “% Activity Run 1” value [9] was 131.0% and the “% Activity Run 2” value [9] was 107.0%. The “% activity” value ([9]; duplicate runs) was 131% and 107%, the “% Inhibition, Mean” value ([10]; MARK3) was 4.7% and the “% Inhibition, Run 1 / Run 2” value ([10]; MARK3) was 1.7% and 8%. For the same molecule, the mean % activity ([10]; MARK3) was 95%, the “% activity” value ([10]; MARK3, duplicate runs) was 98% and 92% and the “% Inhibition, Mean” value ([11]; PIM2) was 1.85%. The mean % activity ([11]; PIM2) was 98% and the “% activity” value ([11]; PIM2, duplicate runs) was 87% and 109%.
